Peptide text beside a SMILES is read from it. * marks the point of attachment. Cbz = O=C(OCc1ccccc1)*; CH2F = FC*
Tests used:
Assay type in all cases: cell-based, human
[1] = test system: LC3-II in GFRα1-overexpressing MG-63 cells; assay: Immunoblot of LC3-II in GFRα1-overexpressing cells; settings: 3-MA (10 μM) or Baf (100 nM)
Protocol: FIG. 3. GFRα1-induced autophagy enhances the chemoresistance of osteosarcoma cells induced by cisplatin. (a) Control and GFRα1-deficient MG-63 cells were transiently transfected with a mRFP-GFP tandem fluorescent-tagged LC3 (mRFP-GFP-LC3) vector and then treated with cisplatin (20μM) for 24 hr. Left, representative images of RFP-LC3 and GFP-LC3 puncta. Scale bar, 20 μm. Right, quantitative analysis of the number of yellow puncta and the number of RFP-LC3 puncta in the combined images. The values are represented as a mean±s.d.m. (n=3). ** denotes p<0.05 by t-test. (b) Control and GFRα1-deficient MG-63 cells were treated with cisplatin (20 μM) for 24 hr and then stained with acridine orange. […] Bottom, quantitative analysis of the number of AVOs. […] (c) Control and GFRα1-deficient MG-63 cells were treated with cisplatin (20 μM) for 24 hr and then analyzed by TEM. Top, representative images of autophagic vacuoles (yellow arrows) detected after cisplatin treatment in control MG-63 cells. […] Bottom, quantitative analysis of the number of autophagic vacuoles. […] (e) Quantitative analysis of the number of yellow puncta and the number of RFP-LC3 puncta in control and GFRα1-overexpressing MG-63 cells. […] Bottom, quantitative analysis of the number of AVOs. […] (h) Control and GFRα1-overexpressing MG-63 cells were treated with cisplatin (20 μM) for 24 hr and then analyzed by TEM. […]

[2] = test system: GFRα1-overexpressing MG-63 clone #4; assay: Colony-forming assay in the presence of cisplatin; settings: cisplatin 20 μM 10 days; 3-MA (10 μM), Baf (100 nM), CQ (30 μg/ml)
Description: FIG. 3. […] Scale bar, 20 μm. […] Scale bar, 20 μm. […] Scale bar, 20 μm.

[3] = test system: GFRα1-overexpressing MG-63 cells; assay: WST-1 cell viability of GFRα1-overexpressing osteosarcoma cells; settings: with DMSO, 3-MA or Baf, then cisplatin 20 μM 24 hr
Protocol: FIG. 3. GFRα1-induced autophagy enhances the chemoresistance of osteosarcoma cells induced by cisplatin. (a) Control and GFRα1-deficient MG-63 cells were transiently transfected with a mRFP-GFP tandem fluorescent-tagged LC3 (mRFP-GFP-LC3) vector and then treated with cisplatin (20μM) for 24 hr. Left, representative images of RFP-LC3 and GFP-LC3 puncta. Scale bar, 20 μm. Right, quantitative analysis of the number of yellow puncta and the number of RFP-LC3 puncta in the combined images. The values are represented as a mean±s.d.m. (n=3). ** denotes p<0.05 by t-test. (b) Control and GFRα1-deficient MG-63 cells were treated with cisplatin (20 μM) for 24 hr and then stained with acridine orange. Top, representative images of cells stained with acridine orange. Scale bar, 20 μm. Bottom, quantitative analysis of the number of AVOs. The values are represented as a mean±s.d.m. (n=3). ** denotes p<0.05 by t-test. (c) Control and GFRα1-deficient MG-63 cells were treated with cisplatin (20 μM) for 24 hr and then analyzed by TEM. Top, representative images of autophagic vacuoles (yellow arrows) detected after cisplatin treatment in control MG-63 cells. Scale bar, 100 nm. Bottom, quantitative analysis of the number of autophagic vacuoles. The values are represented as a mean±s.d.m. (n=3). ** denotes p<0.05 by t-test. (d) Immunoblot analysis of control and GFRα1-overexpressing osteosarcoma cell lysates with antibodies specific for GFRα1, LC3 and β-actin. […] (e) Quantitative analysis of the number of yellow puncta and the number of RFP-LC3 puncta in control and GFRα1-overexpressing MG-63 cells. […] Bottom, quantitative analysis of the number of AVOs. […] (h) Control and GFRα1-overexpressing MG-63 cells were treated with cisplatin (20 μM) for 24 hr and then analyzed by TEM. Top, representative images of autophagic vacuoles detected after cisplatin treatment in control and GFRα1-overexpressing MG-63 cells. […] Bottom, quantitative analysis of the number of autophagic vacuoles. […] Cell viability was measured using the WST-1 assay. […] Cell viability was measured using the WST-1 assay. […]

[4] = test system: Caspase-3 activity in control and GFRα1-deficient MG-63 cells; assay: Caspase-3 activity (Colorimetric CaspACE assay); settings: cisplatin 20 μM 24 hr, ZVAD-FMK 50 μM
Description: FIG. 2. GFRα1 suppresses the chemosensitivity of osteosarcoma cells induced by cisplatin. (a) Generation of GFRα1-deficient osteosarcoma cell lines with GFRα1 shRNA. Both MG-63 and U-2 OS cells were transfected with control or GFRα1 shRNA. Immunoblot analysis of control and GFRα1-deficient stable osteosarcoma cell lysates with antibodies specific for GFRα1 and β-actin. (b) Cell viability of GFRα1-deficient osteosarcoma cells after cisplatin treatment. Control or GFRα1-deficient cells were cultured and treated with different concentrations of cisplatin for 24 hr. Cell viability was measured using the WST-1 assay. The values are represented as a mean±s.d.m. (n=3). ** denotes p<0.05 by t-test. (c) Apoptotic response of GFRα1-deficient osteosarcoma cells after cisplatin treatment. […] Apoptotic cells by FITC-Annexin V staining (top) and viable cells by PI staining (bottom) were analyzed through flow cytometry. […] Cell viability was measured using the WST-1 assay. […] Apoptotic cells by FITC-Annexin V staining (top) and viable cells by PI staining (bottom) were analyzed through flow cytometry. […]
Apoptosis Assays. […] Apoptotic cells were analyzed using a FACSCalibur flow cytometer with CellQuest software (Becton Dickinson, Franklin Lakes, N.J.). […] Caspase 3 activity was analyzed by the Colorimetric CaspACE™ Assay System (Promega, Madison, Wis.) according the manufacturer's instructions. […]

| SMILES | level of LC3-II expression [1] | number of colonies [2] | increase of cell proliferation in GFRα1 overexpressing cells [3] | Caspase-3 activity increase in cisplatin-treated GFRα1-deficient MG-63 cells [4] |
| --- | --- | --- | --- | --- |
| CO/C1=C\C(C)=C\[C@@H](C)[C@@H](O)[C@@H](C)C/C(C)=C/C=C/[C@H](OC)[C@@H]([C@@H](C)[C@@H](O)[C@H](C)[C@@]2(O)C[C@@H](O)[C@H](C)[C@@H](C(C)C)O2)OC1=O [Baf, bafilomycin A1] | increased | effectively reduced | not | – |
| COC(=O)C[C@H](NC(=O)[C@H](C)NC(=O)[C@@H](NC(=O)OCc1ccccc1)C(C)C)C(=O)CF [ZVAD-FMK] (Cbz-Val-Ala-Asp(OMe)-CH2F) | – | – | – | reversed this effect |
